From ChEMBL document CHEMBL3407419, “Multiple binding modes of isothiocyanates that inhibit macrophage migration inhibitory factor” (Eur J Med Chem, 2015)

Legend:
[1] = molecular target: T1, Macrophage migration inhibitory factor (Homo sapiens, UniProt P14174); assay: Inhibition of macrophage migration inhibitory factor tautomerase activity in human Jurkat T cells using L-dopachrome methyl ester as substrate incubated for 30 mins prior to substrate addition measured for 2 mins by spectrophotometric analysis; assay type: cell-based
T1 sequence (P14174 whole entry): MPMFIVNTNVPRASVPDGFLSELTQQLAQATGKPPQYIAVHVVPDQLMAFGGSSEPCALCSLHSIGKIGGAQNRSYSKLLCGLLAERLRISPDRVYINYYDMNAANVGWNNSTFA

[2] = molecular target: T1, Macrophage migration inhibitory factor; assay: (§1) Inhibition of human recombinant macrophage migration inhibitory factor tautomerase activity expressed in Escherichia coli DH5alpha using L-dopachrome methyl ester as substrate incubated for 5 mins prior to substrate addition measured for 2 mins by spectrophotometric analysis
[3] = molecular target: T1, Macrophage migration inhibitory factor; assay: as §1, with “24 months post determination of initial value” for “for 2 mins”
[4] = molecular target: T1, Macrophage migration inhibitory factor; assay: Inhibition of macrophage migration inhibitory factor tautomerase activity in human Jurkat T cells using L-dopachrome methyl ester as substrate incubated for 30 mins prior to substrate addition measured 24 months post determination of initial value by spectrophotometric analysis; assay type: cell-based

| SMILES | IC50 [1] | IC50 [2] | IC50 [3] | IC50 [4] |
| --- | --- | --- | --- | --- |
| C[C@@H](N=C=S)c1ccccc1 | 1.1 µM |  |  |  |
| Oc1ccc(CCN=C=S)cc1 | 1.2 µM | 3.6 µM |  |  |
| Oc1cccc(CCN=C=S)c1 | 7.8 µM | 62 µM |  |  |
| Oc1ccc(CCN=C=S)cc1O | 4 µM | 29 µM |  |  |
| FC(F)(F)c1ccc(CCN=C=S)cc1 | 7.1 µM | 40 µM |  |  |
| FC(F)(F)c1cccc(CCN=C=S)c1 | 10.4 µM |  |  |  |
| S=C=NCCc1ccc(Cl)cc1 | 1.6 µM | 1.1 µM |  |  |
| CC(CN=C=S)c1ccc(O)cc1 (stereo unspecified) | 4.8 µM | 28 µM |  |  |
| Oc1ccc(C(N=C=S)c2ccc(O)cc2)cc1 | > 100 µM |  |  |  |
| Fc1ccc(CN=C=S)cc1 | 0.54 µM |  | 31 µM | 9.6 µM |
| Fc1cccc(CN=C=S)c1 | 1.5 µM |  | 54 µM | 11 µM |
| FC(F)(F)c1cccc(CN=C=S)c1 | 5.9 µM |  |  |  |
| NS(=O)(=O)c1ccc(CN=C=S)cc1 | 0.5 µM | 0.75 µM |  |  |
| S=C=NCc1ccc2c(c1)OCO2 | 5 µM | 2.9 µM |  |  |
| CCC(N=C=S)c1ccccc1 (stereo unspecified) | 21 µM |  |  |  |
| CCC(N=C=S)c1ccc(O)cc1 (stereo unspecified) | > 100 µM |  |  |  |
| CCC(N=C=S)c1ccc(OC)cc1 (stereo unspecified) | 1.2 µM |  |  |  |
| S=C=NC(c1ccccc1)c1ccccc1 | > 100 µM |  |  |  |
| COc1ccccc1OCCN=C=S | 1.8 µM |  |  |  |
| S=C=NCCCc1ccccc1 | 1.4 µM |  |  |  |
| OCCCCCCN=C=S | 5.1 µM |  |  |  |
| COc1ccc(CN=C=S)cc1 | 3.9 µM | 0.7 µM |  |  |
| CC(N=C=S)c1ccccc1 (stereo unspecified) [1-PHENYLETHYL ISOTHIOCYANATE] | 2.8 µM | 1 µM |  |  |
| C=CCN=C=S [ALLYL ISOTHIOCYANATE] | 0.25 µM | 1.1 µM |  |  |
| N#CSCc1ccccc1 [BENZYL THIOCYANATE] | > 100 µM |  |  |  |
| O=C=NCCc1ccccc1 [PHENETHYL ISOCYANATE] | > 100 µM |  |  |  |
| S=C=NCCCCc1ccccc1 [PHENYLBUTYL ISOTHIOCYANATE] | 1.9 µM |  |  |  |
| S=C=NCCCCCCc1ccccc1 [PHENYLHEXYL ISOTHIOCYANATE] | 4.2 µM |  |  |  |
| S=C=Nc1ccccc1 [PHENYLISOTHIOCYANATE] | 11 µM |  |  |  |
| C[S+]([O-])CCCCN=C=S (stereo unspecified) [SULFORAPHANE] | 2.2 µM | 11 µM |  |  |
